This passage reports IC50 results from PubChem BioAssay AID743168 (Sanford-Burnham Center for Chemical Genomics, 2013).

What is called IC50 is the midpoint of a concentration-inhibition curve.

Activity calls are given as the source filed them.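 Rule for the calls: active = compounds whose IC50 here is at most triple their IC50 in the earlier fluorescent lipid screen; inactive = the rest.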

Chain of Diacylglycerol O-acyltransferase 1 (Homo sapiens) (O75907 whole entry, looked up): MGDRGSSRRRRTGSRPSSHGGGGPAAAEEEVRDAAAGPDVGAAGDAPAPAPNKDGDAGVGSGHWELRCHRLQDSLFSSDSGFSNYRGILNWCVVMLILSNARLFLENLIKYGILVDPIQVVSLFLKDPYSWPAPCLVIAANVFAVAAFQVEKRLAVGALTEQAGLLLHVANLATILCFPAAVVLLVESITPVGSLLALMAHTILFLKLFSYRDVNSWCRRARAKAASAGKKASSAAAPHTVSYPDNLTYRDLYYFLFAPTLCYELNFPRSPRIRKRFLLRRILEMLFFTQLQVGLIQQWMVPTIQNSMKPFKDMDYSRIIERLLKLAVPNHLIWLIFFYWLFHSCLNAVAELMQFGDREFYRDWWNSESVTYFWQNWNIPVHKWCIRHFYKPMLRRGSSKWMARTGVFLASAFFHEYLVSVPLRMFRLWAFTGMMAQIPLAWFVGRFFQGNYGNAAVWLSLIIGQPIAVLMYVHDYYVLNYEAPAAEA

This experiment addresses Diacylglycerol O-acyltransferase 1 (Homo sapiens) (UniProt O75907). Put plainly: human DGAT-1 enzyme inhibitors, dose response, counter-screen for TAG accumulation inhibitor project, biochemical, recombinant hDGAT-1, [14C]-TAG formation, radiolabel (AID 743168). To be noted: scintillation.
For `CCCCN1Cc2cccc(C(=O)Nc3cccc(-c4nc5ccccc5[nH]4)c3)c2C1=O`, the IC50 was > 50 µM (inactive). For `O=C(Nc1cccc(-c2nc3ccccc3[nH]2)c1)c1cccc2c1C(=O)N(CCOc1ccccc1)C2`, the IC50 was > 50 µM (inactive). Consider `CCOCCN1Cc2cccc(C(=O)Nc3cccc(-c4nc5ccccc5[nH]4)c3)c2C1=O`, for which the IC50 was > 50 µM (inactive). On to `COCCN1Cc2cccc(C(=O)Nc3cccc(-c4nc5ccccc5[nH]4)c3)c2C1=O`, for which the IC50 was > 50 µM (inactive).

For `O=C(Nc1cccc(-c2nc3ccccc3[nH]2)c1)c1cccc2c1C(=O)N(CC1CC1)C2`, the IC50 was > 50 µM (inactive).
